# Data as given in US20120122935A1, “COMPOSITIONS AND METHODS FOR TREATING NECROTIZING ENTEROCOLITIS” (NATIONWIDE CHILDREN'S HOSPITAL, INC., priority 2007, published 2012).
# Marks after values point to notes of the source that are not given here.
# What was measured:
# [1] = system: newborn rat model of NEC; experiment: newborn rat model of NEC (formula feeding, hypoxia, hypothermia, LPS); assay type: in vivo; details: for Percent of Pups with NEC (any grade) / Percent of Pups with NEC Grade >2: one oral dose each day, n=8; for overall survival of pups exposed to the rat NEC model: nicotinamide treated vs control pups, FIG. 8
# Text: We have established valuable preclinical animal models that mimic intestinal injury in NEC. (Caplan M S, Hedlund E, Adler L, et al. Role of asphyxia and feeding in a neonatal rat model of necrotizing enterocolitis. Pediatr Pathol. November-December 1994; 14(6):1017-1028.) The model involves exposing neonatal rat pups to hypoxia, hypothermia, and formula feeding, leading to physiological stress and intestinal injury that pathologically is very similar to NEC in infants. Pups are delivered by cesarean section at E20 from timed pregnant dams. Pups are fed every 3 h with one skipped feed at 4 am (7 times/day) by oral gavage with 100 ul of a hypertonic formula (Similac and Esbilac). At 8 h post-delivery, pups are treated with 2 mg/kg LPS orally with feeding. Beginning on DOL 1, pups are fed every 3 h and subjected to hypoxic (2 min in 100% nitrogen) and hypothermal (10 min at 4° C.) stress twice daily immediately after feeds. Pups are sacrificed at DOL 4, or when discomfort warrants. Upon sacrifice, the distal ileum is collected in two sections. One section is immediately fixed in 10% neutral buffered formalin, and the other is snap-frozen in liquid nitrogen. Tissues are fixed for 48 h before histological processing and embedding in paraffin.
# Each photomicrograph represents a different severity grading score of intestinal injury in this model as follows: (A)=Grade 0 or normal, (B)=Grade 1 or minimal intestinal damage, (C)=Grade 2 or minimal/modest intestinal damage, (D)=Grade 3 or moderate intestinal injury, (E) Grade 4 or severe intestinal injury. This system is based on the previously published intestinal injury grading system for the newborn rat intestinal model of NEC induced by formula feeding-hypoxia-hypothermia.
# [2] = system: Human fetal intestinal epithelial cells (FHS741NT); experiment: in vitro model of immature intestinal wound restitution (scrape wound plus LPS); assay type: cell-based; details: 50 mg/ml nicotinamide after wounding and LPS administration, FIG. 14
# Experimental: We have established cell culture conditions for neonatal human intestinal epithelial cells (IEC), which we have developed as a platform for investigating cellular responses and identifying potential protection strategies. Human fetal intestinal epithelial cells (FHS741NT), passage seven or less, were seeded (40,000 cells/ml) in poly-1-lysine coated 8-chamber slides (Labtek II; Nunc, Rochester, N.Y.) in media (DMEM containing 10% FBS, L-glutamine (2 mM), EGF (30 ng/ml), and insulin (10 μg/ml)) and allowed to reach confluence. A wound was created in the cell monolayer using a specific cell scraper device attached to a microscope. The microscope stage controls allow the creation of a reproducible straight wound in each slide chamber (width 500 μm). After wounding, media was replaced with media (DMEM with 10% FBS, L-glutamine (2 mM)) containing the appropriate treatment compound. […]
# Digital images of wounds were captured using a 10× objective on an inverted microscope (Olympus, Melville, N.Y.) with an attached digital camera (Diagnostic Instruments, Sterling Heights, Mich.). […] For each subsequent image, the AOI was placed over the position of the original wound and the area occupied by cells was measured. […] Results were expressed as mean % closure where % closure=area of wound occupied by cells/area of original wound. […]
# [3] = doses of 500 mg/kg or more in animal preparations; cited from earlier work
compound,measurement,setting,value
"NC(=O)c1cccnc1 [Nicotinamide, nicotinamide]",Percent of Pups with NEC (any grade),[1]; 50 mg/kg nicotinamide,12.5%*
same,Percent of Pups with NEC Grade >2,[1]; 50 mg/kg nicotinamide,12.5%
same,Percent of Pups with NEC (any grade),[1]; 500 mg/kg nicotinamide,0%*
same,Percent of Pups with NEC Grade >2,[1]; 500 mg/kg nicotinamide,0%
same,overall survival of pups exposed to the rat NEC model,[1],improved overall survival
same,overall survival of pups exposed to the rat NEC model,[1]; listed as nicotinamide,improves survival
same,evidence of NEC Grade 2 or greater,[1]; one oral dose daily at 500 mg/kg,no evidence of NEC Grade 2 or greater
same,protection against development of NEC / intestinal injury,[1]; one oral dose of 50 or 500 mg/kg each day,strikingly protective against the development of any NEC
same,wound healing (epithelial restitution),[2],improves wound healing
same,wound healing (epithelial restitution),[2]; listed as nicotinamide,improved wound healing
same,reported toxicities,[3],little or no reported toxicities
